According to patent US9156815B2, “Salt of (R)-3-(6-amino-pyridin-3-yl)-2-(1-Cyclohexyl-1H-imidazol-4-yl) ethyl propionate” (Sanofi, priority 2011, dated 2015):
Counter-ions that a name gives are not always drawn.

How the values were obtained:
Type in all cases: physicochemical
[1] = Salt screening of the API with acids and solvents, XRPD measurement; design: key: NKP means no crystalline phase; KFA means free acid crystallizes; details: API + acid
Protocol: The molar ratio between the H^+ concentration of the acid and of the API is 2 (for details see table 2). In each cavity of the microtiter plate, 68 microliters of the dissolved API are mixed with 40 microliters of the 0.1 normal acid solutions.
68 microliters of the dissolved API are pipetted into each cavity of a 96 microtiter plate. Then, in each case 40 microliters of the acids dissolved as in table 2 are added according to the scheme as detailed in table 3. The microtiter plate is shaken at room temperature for 20 min so that an equilibrium is formed in the cavities. Evaporation of the solvents at room temperature in a stream of nitrogen for 2 hours. Then, in each case 40 microliters of the solvents according to the scheme as detailed in table 3 are added. The microtiter plate is shaken at room temperature for 20 min so that an equilibrium is formed in the cavities. Evaporation of the solvent then takes place at room temperature in a stream of nitrogen for 2 hours. Finally, XRPD measurement is carried out.

[2] = Physical stability, storage for 14 days (XRPD, thermogravimetry); details: stored 14 days under conditions (A) to (D)
Protocol: Representative samples of the crystalline salt of (R)-3-(6-aminopyridin-3-yl)-2-(1-cyclohexyl-1H-imidazol-4-yl)propionic acid ethyl ester with naphthalene-1,5-disulfonic acid prepared as in example 1 are stored for 14 days under the conditions (A), (B), (C) and (D): • (A) 50° C. • (B) 50° C. and 80% relative atmospheric humidity • (C) 80° C. • (D) 80° C. and 80% relative atmospheric humidity Results:
Only a slight loss in mass during the thermogravimetric measurements (apparatus TA Instruments: TGA Q500, atmospheric nitrogen; rate 10° C./min) is observed, which is attributed to the release of water from the crystals.

[3] = Chiral stability, storage for 14 days (chiral HPLC)
Protocol: Representative samples of the crystalline salt of (R)-3-(6-aminopyridin-3-yl)-2-(1-cyclohexyl-1H-imidazol-4-yl)propionic acid ethyl ester with naphthalene-1,5-disulfonic acid prepared as in example 1 are stored for 14 days under the conditions (A), (B), (C) and (D) described in example 4:
The measurements were carried out using chromatography on chiral phase as described in example 1.
Chiral HPLC: (Chiralcel OD-H/84 (250×4.6 mm), heptane:Isopropanol:Acetonitrile 15:1:0.5+0.1% diethylamine (DEA), 30° C., 1 ml/min): Rt=27.01 min.

| Compound | XRPD result of salt screening ([1]; solvent 2-Methyl-1-propanol) | XRPD result of salt screening ([1]; solvent 2-Propanol) | XRPD result of salt screening ([1]; solvent Butyl acetate) | XRPD result of salt screening ([1]; solvent Ethanol) | XRPD result of salt screening ([1]; solvent Methanol) | XRPD result of salt screening ([1]; solvent Methyl ethyl ketone) | XRPD result of salt screening ([1]; solvent Water) | XRPD result of salt screening ([1]; solvent Water:methanol 1:1) | XRPD measurements at the start and after 14 days [2] | increase of the (S) enantiomer ([3]; 14 days, 50° C. (A)) [%] | increase of the (S) enantiomer ([3]; 14 days, 50° C. and 80% relative atmospheric humidity (B)) [%] | change of enantiomeric purity ([3]; 14 days, 80° C. (C)) | increase of the (S) enantiomer ([3]; 14 days, 80° C. and 80% relative atmospheric humidity (D)) [%] | Enantiomeric purity ([3]; 14 days, storage condition (A) 50° C.) [%] | Enantiomeric purity ([3]; 14 days, storage condition (B) 50° C. and 80% relative atmospheric humidity) [%] | Enantiomeric purity ([3]; 14 days, storage condition (C) 80° C.) [%] | Enantiomeric purity ([3]; 14 days, storage condition (D) 80° C. and 80% relative atmospheric humidity) [%] | Enantiomeric purity ([3]; at the start of the measurement) [%] |
| --- | --- | --- | --- | --- | --- | --- | --- | --- | --- | --- | --- | --- | --- | --- | --- | --- | --- | --- |
| Citric acid | NKP | NKP | NKP | NKP | NKP | NKP | NKP | NKP |  |  |  |  |  |  |  |  |  |  |
| Tartaric acid | NKP | NKP | NKP | NKP | NKP | NKP | NKP | NKP |  |  |  |  |  |  |  |  |  |  |
| Glucuronic acid | NKP | NKP | NKP | NKP | NKP | NKP | NKP | NKP |  |  |  |  |  |  |  |  |  |  |
| Sulfuric acid | NKP | NKP | NKP | NKP | NKP | NKP | NKP | NKP |  |  |  |  |  |  |  |  |  |  |
| CCOC(=O)[C@H](Cc1ccc(N)nc1)c1cn(C2CCCCC2)cn1 [Example 1, crystalline salt of (R)-3-(6-aminopyridin-3-yl)-2-(1-cyclohexyl-1H-imidazol-4-yl)propionic acid ethyl ester with naphthalene-1,5-disulfonic acid] |  |  |  |  |  |  |  |  | close together | 0.2 | 0.2 | no change | 2.7 | 98.8 | 98.8 | 99.0 | 96.3 | 99.0 |
| Malonic acid | NKP | NKP | NKP | NKP | NKP | NKP | NKP | NKP |  |  |  |  |  |  |  |  |  |  |
| Adipic acid | KFA | KFA | KFA | KFA | KFA | KFA | KFA | NKP |  |  |  |  |  |  |  |  |  |  |
| Fumaric acid | NKP | NKP | NKP | NKP | NKP | NKP | NKP | NKP |  |  |  |  |  |  |  |  |  |  |
| Benzoic acid | KFA | KFA | KFA | KFA | KFA | KFA | KFA | NKP |  |  |  |  |  |  |  |  |  |  |
